One assay concerns the target T1, hCRTH2 (Homo sapiens, UniProt Q9Y5Y4).
T1 sequence (Q9Y5Y4 1-395): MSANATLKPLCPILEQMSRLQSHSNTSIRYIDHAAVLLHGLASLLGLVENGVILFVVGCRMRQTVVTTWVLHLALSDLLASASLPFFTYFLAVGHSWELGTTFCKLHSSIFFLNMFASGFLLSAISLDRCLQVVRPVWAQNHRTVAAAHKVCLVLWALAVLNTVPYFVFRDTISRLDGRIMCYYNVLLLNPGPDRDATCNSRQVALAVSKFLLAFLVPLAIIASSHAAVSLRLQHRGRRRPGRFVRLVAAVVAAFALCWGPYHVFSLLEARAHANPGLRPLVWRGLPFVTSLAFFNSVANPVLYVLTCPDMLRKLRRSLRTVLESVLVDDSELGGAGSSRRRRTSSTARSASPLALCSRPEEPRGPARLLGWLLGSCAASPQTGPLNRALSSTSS
More on the design: expressed in transfected cells; host or cells: HEK (human embryonic kidney) cells expressing hCRTH2. Conditions: Radioligand Binding Assay B; 0.7 nM [3H]PGD2, HEK-hCRTH2 membranes. The protocol:
The filters were then washed with 4 mL of the same buffer and residual radioligand bound to the filter was determined by liquid scintillation counting following equilibration in 25 μl Ultima Gold F™ (Unifilter) (Packard).
With `COC(=O)CCC(=O)N(C1CC1)C1c2ccc(F)cc2N(C(=O)c2ccccc2)C2CCCC21` (racemic) [16C, Methyl 4-{cyclopropyl[cis,cis-6-fluoro-4-(phenylcarbonyl)-2,3,3a,4,9,9a-hexahydro-1H-cyclopenta[b]quinolin-9-yl]amino}-4-oxobutanoate], affinity was put at a Ki of 140 nM.
With `O=C(O)CCC(=O)N(C1CC1)C1c2ccccc2N(C(=O)OCc2ccc(Cl)cc2)C2CCCC21` (racemic) [21A, 4-{[cis, cis-4-{[(4-chlorobenzyl)oxy]carbonyl}-2,3,3a,4,9,9a-hexahydro-1H-cyclopenta[b]quinolin-9-yl](cyclopropyl)amino}-4-oxobutanoic acid], the inhibition constant (Ki) – broadly, a dissociation constant, usually derived from enzyme kinetics or from competition with a known ligand – came to 45.7 nM.
In the case of `O=C(O)CCC(=O)N(C1CC1)C1c2ccccc2N(C(=O)Oc2ccccc2)C2CCCC21` (racemic) [21K, 4-{cyclopropyl[cis, cis-4-(phenoxycarbonyl)-2,3,3a,4,9,9a-hexahydro-1H-cyclopenta[b]quinolin-9-yl]amino}-4-oxobutanoic acid], the Ki is 905 nM.

Still in this assay, the particulars now being: Radioligand Binding Assay B; Table B, rated A-D.
Consider `COC(=O)CCC(=O)N(C1CC1)C1c2ccc(F)cc2N(C(=O)c2ccc(Oc3ccccc3)cc2)C2CCCC21` (racemic) [16B, Methyl 4-{cyclopropyl[cis,cis-6-fluoro-4-[(4-phenoxyphenyl)carbonyl]-2,3,3a,4,9,9a-hexahydro-1H-cyclopenta[b]quinolin-9-yl}amino)-4-oxobutanoate], for which the Ki was 5.1 to 20 nM.
Same read-out and setting: as for `COC(=O)CCC(=O)N(C1CC1)C1c2ccc(F)cc2N(C(=O)c2ccccc2)C2CCCC21` (racemic) [16C, Methyl 4-{cyclopropyl[cis,cis-6-fluoro-4-(phenylcarbonyl)-2,3,3a,4,9,9a-hexahydro-1H-cyclopenta[b]quinolin-9-yl]amino}-4-oxobutanoate], the figure is 20.1 to 200 nM; as for `O=C(O)CCC(=O)N(C1CC1)C1c2ccc(F)cc2N(C(=O)c2ccc(Oc3ccccc3)cc2)C2CCCC21` (racemic) [16E, 4-{cyclopropyl[cis,cis-6-fluoro-4-[(4-phenoxyphenyl)carbonyl]-2,3,3a,4,9,9a-hexahydro-1H-cyclopenta[b]quinolin-9-yl}amino)-4-oxobutanoic acid], 1 to 5 nM.
Still for that read-out and setting: under `O=C(O)/C=C/C(=O)N(CC1CC1)C1c2ccccc2N(C(=O)c2ccccc2)C2CCCC12` (racemic) [17H, (2E)-4-[[cis,cis-4-benzoyl-2,3,3a,4,9,9a-hexahydro-1H-cyclopenta[b]quinolin-9-yl](cyclopropylmethyl)amino]-4-oxo-2-butenoic acid] stands 201 to 7500 nM; under `CN(C(=O)CCCC(=O)O)C1c2ccccc2N(C(=O)c2ccccc2)C2CCCC12` (racemic) [17N], 201 to 7500 nM; under `CN(C(=O)/C=C/C(=O)O)C1c2ccccc2N(C(=O)c2ccccc2)C2CCCC12` (racemic) [17P, (2E)-4-[[cis,cis-4-benzoyl-2,3,3a,4,9,9a-hexahydro-1H-cyclopenta[b]quinolin-9-yl]methylamino]-4-oxo-2-butenoic acid], 201 to 7500 nM.
In turn, `CN(C(=O)/C=C/C(=O)O)C1c2ccccc2N(C(=O)c2ccc(OC(F)(F)F)cc2)C2CCCC12` (racemic) [17Q, (2E)-4-[[cis,cis-2,3,3a,4,9,9a-hexahydro-4-[4-(trifluoromethoxy)benzoyl]-1H-cyclopenta[b]quinolin-9-yl]methylamino]-4-oxo-2-butenoic acid] showed an inhibitory constant (Ki) of 201 to 7500 nM.
`CN(C(=O)CCCC(=O)O)C1c2ccccc2N(C(=O)c2ccc(OC(F)(F)F)cc2)C2CCCC12` (racemic) [17o, 5-[[cis,cis-2,3,3a,4,9,9a-hexahydro-4-[4-(trifluoromethoxy)benzoyl]-1H-cyclopenta[b]quinolin-9-yl]methylamino]-5-oxopentanoic acid] had a Ki of 201 to 7500 nM.
Regarding `O=C(O)CCC(=O)N(C1CC1)C1c2ccccc2N(C(=O)OCc2ccc(Cl)cc2)C2CCCC21` (racemic) [21A, 4-{[cis, cis-4-{[(4-chlorobenzyl)oxy]carbonyl}-2,3,3a,4,9,9a-hexahydro-1H-cyclopenta[b]quinolin-9-yl](cyclopropyl)amino}-4-oxobutanoic acid], the Ki lay in the range of 20.1 to 200 nM.
Still for that read-out and setting: under `O=C(O)CCC(=O)N(C1CC1)C1c2ccccc2N(C(=O)Oc2ccc(F)cc2)C2CCCC21` (racemic) [21B, 4-(cyclopropyl{cis, cis-4-[(4-fluorophenoxy)carbonyl]-2,3,3a,4,9,9a-hexahydro-1H-cyclopenta[b]quinolin-9-yl}amino)-4-oxobutanoic acid] stands 201 to 7500 nM; under `O=C(O)CCC(=O)N(C1CC1)C1c2ccccc2N(C(=O)OCc2ccc3ccccc3c2)C2CCCC21` (racemic) [21C, 4-(cyclopropyl{cis, cis-4-[(naphthalen-2-ylmethoxy)carbonyl]-2,3,3a,4,9,9a-hexahydro-1H-cyclopenta[b]quinolin-9-yl}amino)-4-oxobutanoic acid], 20.1 to 200 nM; under `O=C(O)CCC(=O)N(C1CC1)C1c2ccccc2N(C(=O)OCc2ccccc2F)C2CCCC21` (racemic) [21D, 4-{cyclopropyl[cis, cis-4-{[(2-fluorobenzyl)oxy]carbonyl}-2,3,3a,4,9,9a-hexahydro-1H-cyclopenta[b]quinolin-9-yl]amino}-4-oxobutanoic acid], 20.1 to 200 nM.
Take `COc1ccc(COC(=O)N2c3ccccc3C(N(C(=O)CCC(=O)O)C3CC3)C3CCCC32)cc1` (racemic) [21E, 4-{cyclopropyl[cis, cis-4-{[(4-methoxybenzyl)oxy]carbonyl}-2,3,3a,4,9,9a-hexahydro-1H-cyclopenta[b]quinolin-9-yl]amino}-4-oxobutanoic acid]: the Ki was in the range of 20.1 to 200 nM.
Regarding `CC(OC(=O)N1c2ccccc2C(N(C(=O)CCC(=O)O)C2CC2)C2CCCC21)c1ccccc1` (racemic) [21F, 4-(cyclopropyl{cis, cis-4-[(1-phenylethoxy)carbonyl]-2,3,3a,4,9,9a-hexahydro-1H-cyclopenta[b]quinolin-9-yl}amino)-4-oxobutanoic acid], the Ki lay in the range of 20.1 to 200 nM.
Consider `O=C(O)CCC(=O)N(C1CC1)C1c2ccccc2N(C(=O)OCc2ccccn2)C2CCCC21` (racemic) [21G, 4-(cyclopropyl{cis, cis-4-[(pyridin-2-ylmethoxy)carbonyl]-2,3,3a,4,9,9a-hexahydro-1H-cyclopenta[b]quinolin-9-yl}amino)-4-oxobutanoic acid], for which the inhibition constant (Ki) lay in the range of 20.1 to 200 nM.
With `CC(C)(C)COC(=O)N1c2ccccc2C(N(C(=O)CCC(=O)O)C2CC2)C2CCCC21` (racemic) [21H, 4-(cyclopropyl{cis, cis-4-[(2,2-dimethylpropoxy)carbonyl]-2,3,3a,4,9,9a-hexahydro-1H-cyclopenta[b]quinolin-9-yl}amino)-4-oxobutanoic acid], the Ki was 201 to 7500 nM.
Molecule `O=C(O)CCC(=O)N(C1CC1)C1c2ccccc2N(C(=O)OCc2ccncc2)C2CCCC21` (racemic) [21J, 4-(cyclopropyl{cis, cis-4-[(pyridin-4-ylmethoxy)carbonyl]-2,3,3a,4,9,9a-hexahydro-1H-cyclopenta[b]quinolin-9-yl}amino)-4-oxobutanoic acid] registered a Ki of 201 to 7500 nM.
Molecule `O=C(O)CCC(=O)N(C1CC1)C1c2ccccc2N(C(=O)Oc2ccccc2)C2CCCC21` (racemic) [21K, 4-{cyclopropyl[cis, cis-4-(phenoxycarbonyl)-2,3,3a,4,9,9a-hexahydro-1H-cyclopenta[b]quinolin-9-yl]amino}-4-oxobutanoic acid] registered a Ki of 201 to 7500 nM.
In turn, `O=C(O)CCC(=O)N(C1CC1)C1c2ccccc2N(C(=O)OCc2ccc(Cl)c(Cl)c2)C2CCCC21` (racemic) [21L, 4-{cyclopropyl[cis, cis-4-{[(3,4-dichlorobenzyl)oxy]carbonyl}-2,3,3a,4,9,9a-hexahydro-1H-cyclopenta[b]quinolin-9-yl]amino}-4-oxobutanoic acid] registered a Ki of 20.1 to 200 nM.
`O=C(O)CCC(=O)N(C1CC1)C1c2ccccc2N(C(=O)OCC2CC2)C2CCCC21` (racemic) [21i, 4-(cyclopropyl{cis, cis-4-[(cyclopropylmethoxy)carbonyl]-2,3,3a,4,9,9a-hexahydro-1H-cyclopenta[b]quinolin-9-yl}amino)-4-oxobutanoic acid] came in with a Ki of 20.1 to 200 nM.
The molecule `O=C(O)CCC(=O)N(C1CC1)C1c2ccccc2N(C(=O)n2ccnc2)C2CCCC21` (racemic) [23B, 4-{cyclopropyl[cis, cis-4-(1H-imidazol-1-ylcarbonyl)-2,3,3a,4,9,9a-hexahydro-1H-cyclopenta[b]quinolin-9-yl]amino}-4-oxobutanoic acid] gave a Ki of 20.1 to 200 nM.

The values are drawn from patent US8592383B2, “Cycloalkyl-fused tetrahydroquinolines as CRTH2 receptor modulators” (Merck Sharp & Dohme Corp., priority 2011, dated 2013).
